Patent US9290529B2, “Carbonic anhydrase inhibitors and method of their production” (USTAV ORGANICKE CHEMIE A BIOCHEMIE AKADEMIE VED CESKE …, priority 2011, dated 2016)

Assays:
[1] = target: T1, human carbonic anhydrase II (hCA II) (Homo sapiens, UniProt P00918); assay: Colorimetric carbonic anhydrase inhibition assay (CO2 hydration, phenol red), hCA II; assay type: biochemical; details: 0° C., HEPES pH 7.0
T1 construct: purchased Sigma Aldrich C6165
Protocol: The compounds were assayed for inhibition activity of two isoforms of human carbonic anhydrase: hCA II and hCA IX. The human carbonic anhydrase II (HCA II) was purchased from Sigma Aldrich (Cat. No. C6165) in the form of lyophilized protein, which was dissolved before use in 10 mmol·l^−1 HEPES pH 7.0 to a concentration of 300 μmol·l^−1 and further diluted as required. Human carbonic anhydrase IX (HCA IX) was prepared by recombinant expression system in insect (Drosophila expression system, Invitrogen). […] This protein was further purified from media by chelating chromatography carrier His-Select Nickel Affinity Gel (Sigma, Cat No. P6611) and gel chromatography (Superdex 200 GL 30/300, GE Healthcare) according to the manufacturer's recommendations.
The principle of the method is based on measuring the rate of acidification of the solution that is observed as the color-shift of the acid-base-indicator (fenol red). The reaction was conducted in a glass tube placed in an ice bath (0° C., all stock solutions and enzymes were kept at the same temperature). […] This was followed by a CO2 saturation (stream flow 50 ml/min.) using a needle (18 G) up to color transition of fenol-red from red to yellow (typically 60 seconds by default). […] End point of reaction was determined by visual comparison with reference tube containing acid-base indicator (0.01% (wt./vol.) Fenol-red) and the pH adjusted to 7.0. […] Molar activity was calculated according to the formula:
[formula] where tB is the time of negative control without enzyme and tS is the time measured with an enzyme sample (and inhibitor), nprot is the number of moles of protein present in the sample. The value of IC50 for the inhibitor concentration corresponds inhibitor contraction required to decrease the specific activity to half of the value of non-inhibited enzyme. Selectivity towards CA IX inhibitor was calculated as the ratio of IC50 values for inhibition of HCA II against the value of IC50 for inhibition CA IX enzyme.

K562 = assay: MTT cytotoxicity assay, K562; assay type: cell-based, human; details: 72 h
Source text: One of the parameters used as the basis for colorimetric assays is the metabolic activity of viable cells. For example, a microtiter assay which uses the tetrazolium salt MTT is now widely used to quantitate cell proliferation and cytotoxicity (Hájduch et al., Cytotechnology, 19, 1996, 243-245). For instance, this assay is used in drug screening programs and in chemosensitivity testing. Because tetrazolium salts are cleaved only by metabolically active cells, these assays exclusively detect viable cells. In the case of the MTT assay, yellow soluble tetrazolium salt is reduced to a coloured water-insoluble formazan salt. After it is solubilized, the formazan formed can easily and rapidly be quantified in a conventional ELISA plate reader at 570 nm (maximum absorbancy). The quantity of reduced formazan corresponds to the number of vital cells in the culture.
All cells were purchased from the […] (ATCC), unless otherwise indicated: the CEM line are highly chemosensitive T-lymphoblastic leukemia cells, K562 cells were derived from patient with […] with bcr-abl translocation, A549 line is lung adenocarcinoma, HCT116 is colorectal tumor cell line and its p53 gene knock-down counterpart (HCT116p53−) is a model of human cancers with p53 mutation frequently associated with poor prognosis. The daunorubicin resistant subline of CEM cells (CEM-DNR bulk) and paclitaxel resistant subline K562-tax were selected in our laboratory by the cultivation of maternal cell lines in increasing concentrations of daunorubicine or paclitaxel, respectively (Noskova et al., Neoplasma 49, 2002, 418). The CEM-DNR bulk cells overexpress MRP-1 protein, while K562-tax cells overexpress P-glycoprotein, both proteins belong to family of ABC transporters and are involved in primary and/or acquired multidrug resistance phenomenon (Noskova et al., Neoplasma 49, 2002, 418). The cells were maintained in Nunc/Corning 80 cm^2 plastic tissue culture flasks and cultured in cell culture medium (DMEM/RPMI 1640 with 5 g/l glucose, 2 mM glutamine, 100 U/ml penicillin, 100 μg/ml streptomycin, 10% fetal calf serum, and NaHCO3).
This assay was performed according to Hajduch et al., Anti-Cancer Drugs 10, 1997, 1007. Cell suspensions were prepared and diluted according to the particular cell type and the expected target cell density (2 500-30 000 cells/well based on cell growth characteristics). Cells were added by pipette (80 μl) into 96-well microtiter plates. Inoculates were allowed a pre-incubation period of 24 h at 37° C. and 5% CO2 for stabilization. Four-fold dilutions, in 20-μl aliquots, of the intended test concentration were added to the microtiter plate wells at time zero. All test compound concentrations were examined in duplicate. Incubation of the cells with the test compounds lasted for 72 h at 37° C., in a 5% CO2 atmosphere at 100% humidity. At the end of the incubation period, the cells were assayed using MTT. Aliquots (10 μl) of the MTT stock solution were pipetted into each well and incubated for a further 1-4 h. After this incubation period the formazan produced was dissolved by the addition of 100 μl/well of 10% aq SDS (pH=5.5), followed by a further incubation at 37° C. overnight. The optical density (OD) was measured at 540 nm with a Labsystem iEMS Reader MF. Tumor cell survival (TCS) was calculated using the following equation: TCS=(ODdrug-exposed well/mean ODcontrol wells)×100%. The TCS50 value, the drug concentration lethal to 50% of the tumor cells, was calculated from appropriate dose-response curves.

NMRI female mice = assay: Dose finding study (MTD, DLT), single intraperitoneal dose; details: for dose limiting toxicity (DLT): mouse, in vivo, ip; for maximum tolerated dose (MTD): single dose, intraperitoneally, NMRI female mice
Protocol: Both compounds were dissolved in 10% dimethylsulfoxide/water (vol/vol) at stock concentration of 10 mg/ml and applied intraperitoneally to NMRI female mice (minimum 3/group) in ascending doses until the MTD was reached. Animals were housed in specific pathogen free conditions, water and food ad libitum.

[2] = Orientational pharmacokinetics, serum concentrations by HPLC; details: intraperitoneally at the MTD, female NMRI mice
Protocol: The ability of compounds to achieve therapeutically relevant concentrations in biological fluids was tested in orientational pharmacokinetics experiment. […] The blood was collected on ice and processed for serum separation within 60 minutes after sampling. Serum was evaporated to dryness on a device ThermoScientific SPD SpeedVac (72 h, 50° C.) until analyzed. Residues were precipitated by the 225 μl of acetonitrile with an addition of 25 μl of 10% SDS (w/w in water), then vortexed for 5 min and centrifuged 5 min at 14000 RPM at a room temperature. Aliquot of the supernatant was transferred into a 250 μl autosampler vial. […] Sensitivity range 0.2 or 0.02 A.U.F.S. (Absorbance Units Full Scale). An Ion-pair reverse phase chromatographic method with an isocratic elution 300 μl/min was used. Sample injection: 20 μl.

Substance | IC50 [1] [µM] | IC50 (K562) [µM] | dose limiting toxicity (DLT) (NMRI female mice) | maximum tolerated dose (MTD) (NMRI female mice) [mg/kg] | T1/2 [2] [h] | pharmacokinetics under in vivo conditions [2]
1-methylenesulfamide-1,7-dicarba-closo-dodecaborane [CB-19] | 8.9 | 81 ± 3.3 | – | – | – | –
1-methylenesulfamide-3,3′-commo-bis(1,2-dicarba-3-cobalta(III)-closo-dodecabor)ate (1-) [CB-5] | 3.7 | – | – | – | – | –
1-methylenesulfamide-9-phenyl-1,2-dicarba-closo-dodecaborane and 1-methylene-sulfamide-12-phenyl-1,2-dicarba-closo-dodecaborane [CB-8] | 2.44 | 71.3 ± 4.2 | – | – | – | –
1-methylensulfamide-1,2-dicarba-closo-dodekaborane [CB-1] | 2.4 | 60.1 ± 3 | – | – | – | –
1-sulfamide-closo-1-carbadodecaborate (1-) [CB-3] | – | ≥ 100 | – | – | – | –
7-methylensulfamide-8-phenyl-(7,8-nido-dikarbaundekabor)ate (1-) [CB-6] | 39.1 | 27.5 ± 7.1 | – | – | – | –
7-methylensulfamide-(7,8-nido-dicarbaundekaborate) (1-) [CB-2] | 4.6 | ≥ 100 | – | – | – | –
8-butyloxysulfamide-3,3′-commo-bis(decahydro-1,2-dicarba-3-cobalta(III)-closo-dodekabor)ate (1-) [CB-16] | 0.68 | – | somnolence, apathy and local irritation | 166 | 5 | linear pharmacokinetics
8-diethyleneoxysulfamide-3,3′-commo-bis(decahydro-1,2-dicarba-3-cobalta(III)-closo-dodekabor)ate (1-) [CB-17] | 12 | ≥ 100 | – | – | – | –
8-ethylaminomethylsulfamide-8″-methoxy-3,3′-commo-bis(decahydro-1,2-dicarba-3-cobalta(III)-closo-dodecabor)ate (1-) [CB-15] | 14 | 17.7 ± 0.7 | – | – | – | –
8-methylensulfamide-8″-methoxy-3,3′-commo-bis(1,2-dicarba-3-cobalta(III)-closo-dodecabor)ate (1-) [CB-4] | 5 | 74.3 ± 3.7 | somnolence, apathy and local irritation | 125 | 6.5 | linear pharmacokinetics
8-propylenesulfamide-7-phenyl-(7,8-nido-dicarbaundecabor)ate (1-) [CB-13] | 4 | 71.8 ± 1.4 | – | – | – | –
9-sulfamide-9′-amine-2,2′-commo-bis(1,7,9-trikarba-2-ferra(II)-kloso-dodekabor)ane [CB-12] | 14.9 | ≥ 100 | – | – | – | –
10-sulfamide-9′-amine-2,2′-commo-(1,7,10-tricarba-1′,7′,9′-tricarba-2-ferra (II)-closo-dodekabor)ane [CB-10] | 67.9 | – | – | – | – | –
Di(methylenesulfamide)-1,7-dicarba-closo-dodecaborane [CB-20] | 1.6 | – | – | – | – | –
